Test results as given in patent US5691361A, “1,4-dihydropyridine derivatives, a process for their preparation and their use for influencing the blood flow” (priority 1995, dated 1997).
pEC50: −log10 of the molar value.

Tested on: rabbit aorta strips
Test: Vasoconstrictory effect in rabbit aorta strips at low depolarizing conditions (10 mM K+)
Type: cell-based
Procedure: The vasoconstrictory effects are measured at low depolarizing conditions in rabbit aorta strips. 10 mM K^+ is used to obtain a low starting concentration. Subsequently, increasing concentrations of the test compound are added in order to achieve an increase in contraction.
The EC50 (negative logarithm of the molar concentration required to increase the calcium induced contraction of low K^+ depolarized rabbit aorta by 50%) is analysed by interpolation of the corresponding concentration-response curves (table 4).

CC1=C(C(=O)OCN2C(=O)c3ccccc3S2(=O)=O)C(c2cccc([N+](=O)[O-])c2)C(C(=O)OC(C)(C)C)=C(C)N1 (centres unmarked) [Example 53, 5-Tert.-butoxycarbonyl-2,6-dimethyl-4-(3-nitrophenyl)-1,4-dihydropyridine-3-carboxylic acid-N-(1,2-benzisothiazolyl-3(2H)one-1,1-dioxide)-methylester]
vasoconstrictory properties (in words): has vasoconstrictory properties
pEC50 (Oryctolagus cuniculus, rabbit aorta strips predepolarized with 10 mM K+): 8.03
